In patent publication US20250340902A1, “GENE THERAPY FOR BVES-RELATED DISORDERS” (OHIO STATE INNOVATION FOUNDATION, priority 2022, published 2025):

Columns and labels:
[1] = tested on: ADCY3/ADCY6 double KO HEK293 cells with stable expression of cAMPr; assay: cAMPr reporter assay; assay type: cell-based, human; settings: 500 μM
BVES-KO mice = assay: Bortezomib treatment of BVES-KO mice; assay type: in vivo, mouse; settings: vs vehicle
Procedure: Histology analysis and immunofluorescence staining. The skeletal muscles were embedded in optimal cutting temperature (OCT) compound, flash frozen using isopentane chilled in liquid nitrogen and kept at −80° C. until used. Cryosections were prepared using a cryostat Leica CM3054. For hematoxylin and eosin (H&E), transversely oriented sections (10 μm) were cut at mid-point, stained and imaged using a Nikon Ti-E inverted fluorescence microscope equipped with a Lumenera Infinity Color CCD camera and a Nikon Super Fluor 20×0.75 NA objective lens (Nikon Inc., Melville, NY) as previously described.
For immunofluorescence staining, frozen tissue sections (10 μm) were fixed with 4% paraformaldehyde for 10 minutes at room temperature. After washing with PBS, the slides were blocked with 5% BSA/PBS for one hour. The slides were incubated with the indicated primary antibodies (Table 3) at 4° C. overnight. After extensive washing with PBS, the slides were incubated with the secondary antibodies (1:400) (Table 3) for one hour at room temperature. The slides were sealed with […] Antifade Mounting Medium with DAPI (Vector Laboratory, Burlingame, CA). The images were taken under a LSM780 microscope (Zeiss, Germany) and assembled to figures using Adobe Photoshop 21.0.2 (Adobe, San Jose, CA). Fiber size and CNF quantification were carried out using Myosight with manual calibration on the entire cross-sections of GA muscles.
Bortezomib Treatment. Bortezomib was purchased from Selleck Chemicals (#S0130, Houston, TX). A stock solution (5 mg/ml) dissolved in the vehicle 2% DMSO, 30% PEG300 and ddH2O were aliquoted and stored at […]. An equal volume of Bortezomib (0.8 mg/kg diluted with the vehicle) or vehicle was I.P. injected once bi-weekly into BVES-KO mice (N=6 per treatment) at 12 weeks age, respectively. After two months of treatment, force measurement and exercise evaluation were performed. Mice were sacrificed after 3-month treatment. QU and GA muscles were processed for histopathology, immunofluorescence and Western blot analyses.
Force measurement. The muscle contractility was measured using an in vivo muscle test system (Aurora Scientific Inc) as previously described. Briefly, mice were anesthetized with 2% (w/v) isoflurane and anesthesia was maintained by 2% isoflurane (w/v) during muscle contractility measurement. Maximum plantarflexion tetanic torque was measured during a train of supramaximal electric stimulations of the tibial nerve (pulse frequency 150 Hz, pulse duration 0.2 ms) using the DMA v5.501 (Aurora Scientific Inc).
Exercise and exhaustion assay. Time and distance to exhaustion was performed as previously described. Briefly, prior to training, the randomized mice were firstly acclimated to the treadmill (LE8710MTS, Harvard Apparatus) for two consecutive days at slow speed (10 cm/s) for 5 min. On the third day, mice were placed on an uphill) (15° treadmill with an initial speed of 10 cm/s, increased every 4 min by 5 cm/s. Mice were considered to be exhausted when the animal's hindlimbs remained on the electric grid for more than 10 s. Time and distance were automatically collected via the software SeDaCOM (Harvard Apparatus).

[2] = tested on: WT and BVES-KO skeletal muscles; assay: Autophagic flux assay (colchicine), LC3B Western blot in GA muscles; assay type: in vivo, mouse; settings: 0.4 mg/kg I.P. daily 7 days
Procedure: Autophagic flux assay. A stock solution of colchicine (4 mg/ml in sterile ddH2O, C9754, Sigma-Aldrich) was prepared and stored at −20° C. until the day of treatment. Immediately prior to administration, the colchicine stock solution was diluted to 0.1 mg/mL in sterile ddH2O water. An equal volume of colchicine (0.4 mg/kg) or vehicle was administered to mice (6 weeks old) daily via I.P. injection for 7 days. Muscle tissues were harvested from treated mice on the day after the final treatment.
Western blot. The cells and tissues were homogenized/lysed with cold RIPA buffer supplemented with protease inhibitors, and the extracted proteins were quantified by DC™ Protein Assay Reagent (Bio-Rad, Hercules, CA). The membrane extraction was performed using the Membrane Protein Extraction Kit (ab65400, Abcam, Waltham, MA) according to the manufacturer's instruction. The extracted protein samples were separated by stain-free SDS-PAGE gels (Bio-Rad, 4-15%) and transferred onto Nitrocellulose Membranes (0.45 μm). The membrane was incubated with the primary antibodies (Table 3) at 4° C. overnight. Secondary HRP-conjugated goat anti-mouse (1:4000) and goat anti-rabbit (1:4000) antibodies were obtained from Cell Signaling Technology (Danvers, MA). […] Western blots were quantified using Image Lab 6.0.1 software (Bio-Rad Laboratories, Hercules, CA) according to the manufacturer's instruction.

CC(C)Cn1c(=O)n(C)c(=O)c2[nH]cnc21 [IBMX, 3-isobutyl-1-methylxanthine]
cAMP (cAMPr fluorescence) change ([1]; ADCY9-transfected cells): gradual increase | cAMP (cAMPr fluorescence) change ([1]; cells co-transfected with BVES and ADCY9): substantially reduced cAMP elevation

CC(C)C[C@H](NC(=O)[C@H](Cc1ccccc1)NC(=O)c1cnccn1)B(O)O [bortezomib]
body weight (BVES-KO mice; 0.8 mg/kg I.P. once bi-weekly, 2 months): significantly increased | fiber size (CSA, GA) (BVES-KO mice; 0.8 mg/kg I.P., 2 months): significantly increased | muscle contractility (tetanic torque) (BVES-KO mice; 0.8 mg/kg I.P., 2 months): enhanced | physical performance on treadmill running (time to exhaustion, total running distance) (BVES-KO mice; 0.8 mg/kg I.P., 2 months): improved | mass of quadriceps and gastrocnemius muscles (normalized to body weight) (BVES-KO mice; 0.8 mg/kg I.P.): significantly increased | muscle pathology (H&E staining, GA) (BVES-KO mice; 0.8 mg/kg I.P.): remarkably improved | percentage of CNFs (GA) (BVES-KO mice; 0.8 mg/kg I.P.): reduced

COc1cc2c(c(OC)c1OC)-c1ccc(OC)c(=O)cc1[C@@H](NC(C)=O)CC2 [colchicine]
LC3B (Western blot) [2]: significant increase
